Common to all, as to test: relative viability (nuclei count vs DMSO), 5 days (fraction); higher = more cells survive
Compound in the assay “IPA-3 + Dasatinib”: C1=CC=C2C(=C1)C=CC(=C2SSC3=C(C=CC4=CC=CC=C43)O)O [IPA-3] + Cc1nc(Nc2ncc(C(=O)Nc3c(C)cccc3Cl)s2)cc(N2CCN(CCO)CC2)n1 [Dasatinib] (partner 0.075 µM)
The method, boiled down:
(§1)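 Relative viability was taken as the ratio of nuclei in treated wells to nuclei in vehicle wells. Lung cancer cell lines in 1536-well plates received compounds by pin tool one day after seeding, either one drug alone or a fixed anchor-drug dose plus five library-drug doses (not always all listed) in √10 steps. Nuclei were counted on 4× images after 5 days of treatment, and values are medians of duplicate plates.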

Compound in assay [1]: Cc1ccc(-n2nc(C(C)(C)C)cc2NC(=O)Nc2ccc(OCCN3CCOCC3)c3ccccc23)cc1 [Doramapimod] + CC(=O)c1c(C)c2cnc(Nc3ccc(N4CCNCC4)cn3)nc2n(C2CCCC2)c1=O [Palbociclib] (partner 0.5 µM)
A digest of the protocol:
as §1

Compound in the assay “Doramapimod + Navitoclax”: Cc1ccc(-n2nc(C(C)(C)C)cc2NC(=O)Nc2ccc(OCCN3CCOCC3)c3ccccc23)cc1 [Doramapimod] + CC1(C)CCC(c2ccc(Cl)cc2)=C(CN2CCN(c3ccc(C(=O)NS(=O)(=O)c4ccc(N[C@H](CCN5CCOCC5)CSc5ccccc5)c(S(=O)(=O)C(F)(F)F)c4)cc3)CC2)C1 [Navitoclax] (partner 0.5 µM)
The method, boiled down: as §1

Compound in the assay “Doramapimod + Pemetrexed”: Cc1ccc(-n2nc(C(C)(C)C)cc2NC(=O)Nc2ccc(OCCN3CCOCC3)c3ccccc23)cc1 [Doramapimod] + Nc1nc2[nH]cc(CCc3ccc(C(=O)N[C@@H](CCC(=O)O)C(=O)O)cc3)c2c(=O)[nH]1 [Pemetrexed] (partner 0.2 µM)
A digest of the protocol: as §1

This note sets out measurements from the supplement of paper PMC10307832.

Take 201T: the relative viability worked out at 0.576 in the assay with IPA-3 + Dasatinib (first compound 0.2 µM); 0.57 in the assay with IPA-3 + Dasatinib (first compound 0.6325 µM); 0.604 with IPA-3 + Dasatinib (first compound 2 µM); 0.616 with IPA-3 + Dasatinib (first compound 6.325 µM); 0.65 with IPA-3 + Dasatinib (first compound 20 µM); 0.363 in assay [1] (first compound 0.02 µM). Also, the relative viability in assay [1] (first compound 0.06325 µM) worked out at 0.351; in assay [1] (first compound 0.2 µM), 0.321; in assay [1] (first compound 0.6325 µM) it was 0.368; in assay [1] (first compound 2 µM), 0.336; with Doramapimod + Navitoclax (first compound 0.02 µM) it was 1.27; in the assay with Doramapimod + Navitoclax (first compound 0.06325 µM), 1.24. Further, the relative viability amounted to 1.2 with Doramapimod + Navitoclax (first compound 0.2 µM); 1.29 with Doramapimod + Navitoclax (first compound 0.6325 µM); 1.28 with Doramapimod + Navitoclax (first compound 2 µM); 0.308 with Doramapimod + Pemetrexed (first compound 0.02 µM); 0.333 with Doramapimod + Pemetrexed (first compound 0.06325 µM); 0.347 in the assay with Doramapimod + Pemetrexed (first compound 0.2 µM). In addition, the relative viability turned out to be 0.331 with Doramapimod + Pemetrexed (first compound 0.6325 µM) and 0.318 in the assay with Doramapimod + Pemetrexed (first compound 2 µM).

As for A549, the relative viability was 1.18 with Doramapimod + Navitoclax (first compound 0.02 µM); 1.22 in the assay with Doramapimod + Navitoclax (first compound 0.06325 µM); 1.39 in the assay with Doramapimod + Navitoclax (first compound 0.2 µM); 1.34 with Doramapimod + Navitoclax (first compound 0.6325 µM); 1.1 in the assay with Doramapimod + Navitoclax (first compound 2 µM).

For A-427, the relative viability in the assay with IPA-3 + Dasatinib (first compound 0.2 µM) was 0.682; with IPA-3 + Dasatinib (first compound 0.6325 µM), 0.632; in the assay with IPA-3 + Dasatinib (first compound 2 µM), 0.634; with IPA-3 + Dasatinib (first compound 6.325 µM) it was 0.713; in the assay with IPA-3 + Dasatinib (first compound 20 µM), 0.72; in assay [1] (first compound 0.02 µM) it was 0.488. Besides, the relative viability in assay [1] (first compound 0.06325 µM) came out at 0.521; in assay [1] (first compound 0.2 µM), 0.52; in assay [1] (first compound 2 µM) it was 0.54; with Doramapimod + Navitoclax (first compound 0.02 µM), 1.02; in the assay with Doramapimod + Navitoclax (first compound 0.06325 µM) it was 1.01; with Doramapimod + Navitoclax (first compound 0.2 µM), 1.02. Further, the relative viability with Doramapimod + Navitoclax (first compound 2 µM) was 1.08; in the assay with Doramapimod + Pemetrexed (first compound 0.02 µM), 0.926; with Doramapimod + Pemetrexed (first compound 0.06325 µM), 1; with Doramapimod + Pemetrexed (first compound 0.2 µM) it was 1; with Doramapimod + Pemetrexed (first compound 2 µM) it was 0.988.

As for ABC-1, the relative viability with IPA-3 + Dasatinib (first compound 0.2 µM) was 0.666; with IPA-3 + Dasatinib (first compound 0.6325 µM), 0.477; in the assay with IPA-3 + Dasatinib (first compound 2 µM), 0.536; with IPA-3 + Dasatinib (first compound 6.325 µM), 0.708; with IPA-3 + Dasatinib (first compound 20 µM), 0.58; in assay [1] (first compound 0.02 µM), 0.642. Also, the relative viability in assay [1] (first compound 0.06325 µM) was 0.732; in assay [1] (first compound 0.2 µM) it was 0.683; in assay [1] (first compound 0.6325 µM), 0.845; in assay [1] (first compound 2 µM), 0.817.

Regarding BEN, the relative viability with IPA-3 + Dasatinib (first compound 0.2 µM) amounted to 0.471; with IPA-3 + Dasatinib (first compound 0.6325 µM) it was 0.35; in the assay with IPA-3 + Dasatinib (first compound 2 µM) it was 0.323; in the assay with IPA-3 + Dasatinib (first compound 6.325 µM), 0.342; with IPA-3 + Dasatinib (first compound 20 µM), 0.283; in assay [1] (first compound 0.02 µM), 0.462. The relative viability was determined as 0.459 in assay [1] (first compound 0.06325 µM); 0.504 in assay [1] (first compound 0.2 µM); 0.387 in assay [1] (first compound 0.6325 µM); 0.541 in assay [1] (first compound 2 µM); 0.0531 in the assay with Doramapimod + Navitoclax (first compound 0.02 µM); 0.0454 with Doramapimod + Navitoclax (first compound 0.06325 µM). The relative viability amounted to 0.0875 in the assay with Doramapimod + Navitoclax (first compound 0.2 µM); 0.0584 in the assay with Doramapimod + Navitoclax (first compound 0.6325 µM); 0.0743 in the assay with Doramapimod + Navitoclax (first compound 2 µM); 0.74 with Doramapimod + Pemetrexed (first compound 0.02 µM); 0.849 with Doramapimod + Pemetrexed (first compound 0.06325 µM); 0.795 with Doramapimod + Pemetrexed (first compound 0.2 µM). Also, the relative viability stood at 0.673 with Doramapimod + Pemetrexed (first compound 0.6325 µM) and 0.795 with Doramapimod + Pemetrexed (first compound 2 µM).

CAL-12T: the relative viability in the assay with IPA-3 + Dasatinib (first compound 0.2 µM) turned out to be 0.627; with IPA-3 + Dasatinib (first compound 0.6325 µM), 0.418; with IPA-3 + Dasatinib (first compound 2 µM) it was 0.379; with IPA-3 + Dasatinib (first compound 6.325 µM), 0.409; with IPA-3 + Dasatinib (first compound 20 µM) it was 0.524; in assay [1] (first compound 0.02 µM), 0.413. For the same cell line, the relative viability was found to be 0.45 in assay [1] (first compound 0.06325 µM); 0.421 in assay [1] (first compound 0.2 µM); 0.434 in assay [1] (first compound 0.6325 µM); 0.511 in assay [1] (first compound 2 µM); 1.14 in the assay with Doramapimod + Navitoclax (first compound 0.02 µM); 1.14 with Doramapimod + Navitoclax (first compound 0.06325 µM). Also, the relative viability with Doramapimod + Navitoclax (first compound 0.2 µM) worked out at 1.14; in the assay with Doramapimod + Navitoclax (first compound 0.6325 µM), 1.48; with Doramapimod + Navitoclax (first compound 2 µM) it was 1.03; with Doramapimod + Pemetrexed (first compound 0.02 µM), 1.02; with Doramapimod + Pemetrexed (first compound 0.06325 µM), 1.08; in the assay with Doramapimod + Pemetrexed (first compound 0.2 µM), 1.25. The relative viability with Doramapimod + Pemetrexed (first compound 0.6325 µM) turned out to be 1.22; with Doramapimod + Pemetrexed (first compound 2 µM), 0.947.

Regarding COR-L23, the relative viability with IPA-3 + Dasatinib (first compound 0.2 µM) worked out at 0.679; in the assay with IPA-3 + Dasatinib (first compound 0.6325 µM) it was 0.506; in the assay with IPA-3 + Dasatinib (first compound 2 µM), 0.503; with IPA-3 + Dasatinib (first compound 6.325 µM) it was 0.46; in the assay with IPA-3 + Dasatinib (first compound 20 µM), 0.125; in assay [1] (first compound 0.02 µM) it was 0.29. Further, the relative viability was determined as 0.317 in assay [1] (first compound 0.06325 µM); 0.298 in assay [1] (first compound 0.2 µM); 0.338 in assay [1] (first compound 0.6325 µM); 0.283 in assay [1] (first compound 2 µM); 1.1 with Doramapimod + Navitoclax (first compound 0.02 µM); 0.989 with Doramapimod + Navitoclax (first compound 0.06325 µM). Moreover, the relative viability with Doramapimod + Navitoclax (first compound 0.2 µM) was 1; with Doramapimod + Navitoclax (first compound 0.6325 µM), 1.07; with Doramapimod + Navitoclax (first compound 2 µM) it was 1.02; with Doramapimod + Pemetrexed (first compound 0.02 µM) it was 0.222; in the assay with Doramapimod + Pemetrexed (first compound 0.06325 µM), 0.203; in the assay with Doramapimod + Pemetrexed (first compound 0.2 µM) it was 0.212. Also, the relative viability with Doramapimod + Pemetrexed (first compound 0.6325 µM) turned out to be 0.19; with Doramapimod + Pemetrexed (first compound 2 µM) it was 0.2.

Consider COR-L 105, for which the relative viability in the assay with IPA-3 + Dasatinib (first compound 0.2 µM) was 0.401; with IPA-3 + Dasatinib (first compound 0.6325 µM) it was 0.34; in the assay with IPA-3 + Dasatinib (first compound 2 µM), 0.305; in the assay with IPA-3 + Dasatinib (first compound 6.325 µM), 0.332; with IPA-3 + Dasatinib (first compound 20 µM) it was 0.272; in assay [1] (first compound 0.02 µM), 0.398. Also, the relative viability in assay [1] (first compound 0.06325 µM) stood at 0.421; in assay [1] (first compound 0.2 µM), 0.404; in assay [1] (first compound 0.6325 µM) it was 0.449; in assay [1] (first compound 2 µM), 0.351; with Doramapimod + Navitoclax (first compound 0.02 µM), 0.685; with Doramapimod + Navitoclax (first compound 0.06325 µM), 0.713. Moreover, the relative viability with Doramapimod + Navitoclax (first compound 0.2 µM) came to 0.811; with Doramapimod + Navitoclax (first compound 0.6325 µM), 0.81; in the assay with Doramapimod + Navitoclax (first compound 2 µM), 0.889; in the assay with Doramapimod + Pemetrexed (first compound 0.02 µM) it was 1.21; in the assay with Doramapimod + Pemetrexed (first compound 0.06325 µM), 1.05; with Doramapimod + Pemetrexed (first compound 0.2 µM) it was 0.995. Besides, the relative viability in the assay with Doramapimod + Pemetrexed (first compound 0.6325 µM) amounted to 1.31; in the assay with Doramapimod + Pemetrexed (first compound 2 µM) it was 0.951.
